Data on 12 molecules can be found in ChEMBL document CHEMBL3217665, “Amino-derivatives of the sesquiterpene lactone class of natural products as prodrugs” (Medchemcomm, 2013).

Data set [1] is described as follows: Antiproliferative activity against human Hep2 cells. In kind it is functional. The conditions noted are these: HEp-2, read-out: ED50 (the source's name).
The test system of another data set is NCI-H520. Description: Antiproliferative activity against human NCI-H520 cells. Format: functional, cell-based.
For the next data set, the system named is MCF7. Description: Antiproliferative activity against human MCF7 cells. Format: functional, cell-based.
The test system of a further data set is A549. The data set is described as follows: Antiproliferative activity against human A549 cells. In kind it is functional, cell-based.
The subject of data set [2] is P388. The data set is described as follows: Antiproliferative activity against mouse P388 cells. Format: functional, cell-based.
Data set [3] in a line: Cmax in dog at 100 mg/kg, po. In kind it is ADME, organism-based, Canis lupus familiaris. Further details: dose 100 mg/kg, route oral. The conditions noted are these: in vivo.
A short description of data set [4]: Cmax in mouse at 40 mg/kg, po. Format: ADME, organism-based. Further details: dose 40 mg/kg, route oral. The conditions noted are these: in vivo.
Data set [5] can be described thus: Oral bioavailability in mouse at 100 mg/kg. In kind it is ADME, organism-based. The conditions noted are these: in vivo.
Data set [6] in a line: Oral bioavailability in dog at 100 mg/kg. Format: ADME, organism-based, Canis lupus familiaris. Conditions: in vivo.
Data set [7] is described as follows: Half life in dog at 100 mg/kg, po. In kind it is ADME, organism-based, Canis lupus familiaris. Further details: dose 100 mg/kg, route oral. Conditions: in vivo.
The nature of data set [8]: Half life in mouse at 100 mg/kg, po. In kind it is ADME, organism-based. Further details: dose 100 mg/kg, route oral. Conditions: in vivo.
The nature of data set [9]: Cmax in mouse at 100 mg/kg, po. The conditions noted are these: in vivo. Further details: dose 100 mg/kg, route oral. In kind it is ADME, organism-based.
For data set [10], the system named is P388. Description: Antitumor activity against mouse P388 cells allografted in DBA/2 mouse assessed as survival. In kind it is functional.
The species entered for another data set is Mus musculus. Description: Gastroprotective activity in mouse assessed as inhibition of water-immersion-induced lesions. Format: functional.
Another data set is filed under the species Rattus norvegicus. Description: Gastroprotective activity in rat assessed as inhibition of HCl/ethyl alcohol-induced lesions. Format: functional.
Data set [11] is described as follows: Antiinflammatory activity in mouse macrophages assessed as LPS-induced nitric oxide production. Format: functional, cell-based. Conditions: Macrophage.

Values after ≈ are worked out from the molar mass of the structure shown.

In the case of `C=C1C(=O)O[C@@H]2C[C@@H](C)[C@@H]3CCC(=O)[C@@]3(C)[C@@H](O)[C@H]12`, the EC50 in data set [1] is 3.83 mg/L (≈ 14.5 µM).
By IC50 is commonly meant the concentration needed to halve the response being measured. Take `C=C1CCC[C@]2(C)C[C@H]3OC(=O)[C@@H](CN(CC)CC)[C@H]3C[C@@H]12`: the IC50 with NCI-H520 turned out to be 0.9 µM; in the data set on MCF7, 0.8 µM; in the data set on A549 it was 0.8 µM; in the data set on P388 [2], 0.3 µM.
By Cmax is commonly meant the highest concentration seen after dosing. A word on the bioavailability: it is the share of a dose that reaches the circulation, judged against a reference dose that is usually intravenous. Read a high bioavailability as good availability. Broadly, the half-life is the time in which the quantity being followed falls by half. Consider `C/C1=C\CC[C@@]2(C)O[C@@H]2[C@H]2OC(=O)[C@@H](CN(C)C)[C@@H]2CC1`, for which the Cmax is 61 µM in data set [3], 0.2 µM in data set [4] and 25 µM in [9]. Moreover, the bioavailability in data set [5] and in [6] was 70% throughout. Besides, the figures for the half-life in [7] and in data set [8] were 1.9 h and 0.63 h, respectively.
On to `C[C@@H]1C[C@H]2OC(=O)C(CN(C)C)[C@H]2[C@H](O)[C@]2(C)C(=O)C=C[C@@H]12` (stereo partly specified), for which, in the data set on P388 [10], the Survival came out at 13 days. In data set [1], the EC50 was determined as 0.604 mg/L (≈ 1.96 µM).
On to `C[C@@H]1C[C@H]2OC(=O)C(CN(C)C)[C@H]2[C@H](O)[C@]2(C)C(=O)CC[C@@H]12` (stereo partly specified), for which the EC50 in [1] came to 6.04 mg/L (≈ 19.5 µM).
As to `C/C1=C\[C@H]2OC(=O)[C@@H](CN3CCC[C@H]3C(=O)O)[C@@H]2CC/C(C)=C/CC1`, the “inhibition (INH)” value is on record as 57% in the data set listed under Mus musculus and 59.8% in the data set filed under Rattus norvegicus. For the same molecule, the IC50 in data set [11] is 2.8 mg/L (≈ 8.06 µM).
For `C=C1CC[C@H]2C(=C)CC[C@@H]3[C@H](OC(=O)[C@H]3CN3CCC[C@H]3C(=O)O)[C@@H]12`, the “inhibition (INH)” value turned out to be 19% in the data set listed under Mus musculus and 87% in the data set listed under Rattus norvegicus. The IC50 in data set [11] is 2.8 mg/L (≈ 8.11 µM).
The like results for `C=C1CC[C@H]2C(=C)CC[C@@H]3[C@H](OC(=O)[C@H]3CN[C@@H](CC(N)=O)C(=O)O)[C@@H]12` were, in that order, 4.7%, 68.1% and 16 mg/L (≈ 44.1 µM).
As for `C=C1C(=O)O[C@@H]2/C=C(\C)CC/C=C(\C)CC[C@@H]12` [COSTUNOLIDE], the entries for the “inhibition (INH)” value in the data set listed under Mus musculus and in the data set filed under Rattus norvegicus were 14.3% and 93.2%, respectively. Further, in [11], the IC50 worked out at 1.2 mg/L (≈ 5.17 µM).
Take `C=C1CC[C@H]2C(=C)CC[C@H]3C(=C)C(=O)O[C@@H]3[C@@H]12` [DEHYDROCOSTUSLACTONE]: the entries for the “inhibition (INH)” value in the data set filed under Mus musculus and in the data set listed under Rattus norvegicus were 19% and 96.2%, respectively. For the same molecule, the IC50 in data set [11] turned out to be 1.2 mg/L (≈ 5.21 µM).
Take `C=C1C(=O)O[C@@H]2C[C@@H](C)[C@@H]3C=CC(=O)[C@@]3(C)[C@@H](O)[C@H]12` [HELENALIN]: the Survival in the data set with P388 [10] came out at 13.4 days. Also, in data set [1], the EC50 was found to be 0.083 mg/L (≈ 0.316 µM).
In the case of `C=C1C(=O)O[C@@H]2C[C@@]3(C)CCCC(=C)[C@@H]3C[C@H]12` [ISOALANTOLACTONE], the IC50 with NCI-H520 amounted to 0.9 µM; with MCF7 it was 0.6 µM; with A549, 0.6 µM; in the data set with P388 [2], 0.4 µM.
